Experimental data reported in BindingDB's records for patent US11807646 (Almac Discovery, 2023).

target: T1, Ubiquitin carboxyl-terminal hydrolase 19 (Homo sapiens, UniProt O94966); experiment: Fluorescence Polarization (FP) Homogeneous Assay
T1 sequence (O94966 whole entry): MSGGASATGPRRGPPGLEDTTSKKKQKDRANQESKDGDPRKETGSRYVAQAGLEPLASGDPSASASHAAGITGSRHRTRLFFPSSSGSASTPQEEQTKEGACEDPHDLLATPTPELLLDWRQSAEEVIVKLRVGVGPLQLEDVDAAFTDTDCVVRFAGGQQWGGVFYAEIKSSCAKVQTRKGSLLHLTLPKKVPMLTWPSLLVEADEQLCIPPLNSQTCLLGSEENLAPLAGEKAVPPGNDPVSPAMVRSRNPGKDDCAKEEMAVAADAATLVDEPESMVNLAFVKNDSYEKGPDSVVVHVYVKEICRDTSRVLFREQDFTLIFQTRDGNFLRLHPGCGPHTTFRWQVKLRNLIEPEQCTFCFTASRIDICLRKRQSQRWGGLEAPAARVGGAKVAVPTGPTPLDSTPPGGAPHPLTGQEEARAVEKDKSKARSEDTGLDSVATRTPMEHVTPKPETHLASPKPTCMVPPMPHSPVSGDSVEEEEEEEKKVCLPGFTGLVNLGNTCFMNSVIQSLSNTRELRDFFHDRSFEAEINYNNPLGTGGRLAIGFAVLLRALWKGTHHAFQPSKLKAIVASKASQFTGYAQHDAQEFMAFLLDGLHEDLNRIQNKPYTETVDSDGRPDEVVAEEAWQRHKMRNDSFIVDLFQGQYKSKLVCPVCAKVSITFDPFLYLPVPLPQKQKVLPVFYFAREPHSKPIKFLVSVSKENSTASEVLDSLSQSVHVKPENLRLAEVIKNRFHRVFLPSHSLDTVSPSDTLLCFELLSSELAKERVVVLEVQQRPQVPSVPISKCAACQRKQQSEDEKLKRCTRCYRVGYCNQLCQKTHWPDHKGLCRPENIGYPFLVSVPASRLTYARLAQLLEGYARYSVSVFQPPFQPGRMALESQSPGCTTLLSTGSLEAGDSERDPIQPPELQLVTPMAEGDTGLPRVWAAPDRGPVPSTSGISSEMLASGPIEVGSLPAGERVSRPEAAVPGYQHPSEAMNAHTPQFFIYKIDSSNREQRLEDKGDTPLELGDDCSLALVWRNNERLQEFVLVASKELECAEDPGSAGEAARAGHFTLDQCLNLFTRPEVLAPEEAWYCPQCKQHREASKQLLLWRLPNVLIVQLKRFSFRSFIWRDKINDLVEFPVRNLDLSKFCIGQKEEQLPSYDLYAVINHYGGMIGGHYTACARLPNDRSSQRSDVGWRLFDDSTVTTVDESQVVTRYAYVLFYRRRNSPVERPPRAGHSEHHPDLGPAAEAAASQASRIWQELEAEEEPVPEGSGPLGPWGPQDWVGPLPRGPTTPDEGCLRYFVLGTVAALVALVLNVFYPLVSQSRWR
Experimental: Unless otherwise stated, all other reagents were purchased from Sigma. Enzymatic reactions were conducted in black flat bottom polystyrene 384-well plates (Nunc) and 30 μL total volume. […] Inhibitors were stored as 10 mM DMSO stocks in an inert environment (low humidity, dark, low oxygen, room temperature) using the Storage Pod System and serial dilutions were prepared in buffer just prior to the assay (from 200 μM to 2 pM, 8-18 data point curve). Following incubation at rt for 30 min, the enzymatic reactions were initiated by dispensing the Ub substrate (500 nM, 10 μL). FP was measured every 15 min over a period of 90 min (within the linear range of the assay) using a Synergy 4 plate reader (BioTek) exciting at 530 nm and measuring the amount of parallel and perpendicular light at 575 nm. The FP signal was subsequently normalized to the no compound control.

IC50, < 500 nM:
O=C(N1CC[C@@](O)(Cn2ncc(-c3ccccc3)cc2=O)C2(CCCC2)C1)N1CCOC[C@H]1c1ccccc1 [US11807646, Example 280]
O=C(N1CC[C@@](O)(Cn2cc(F)c(-c3ccccc3)cc2=O)C2(CCCC2)C1)N1CCNC[C@H]1c1ccccc1 [US11807646, Example 331]
CN(C)c1cc(=O)n(C[C@]2(O)CCN(C(=O)N3CCNC[C@H]3c3ccccc3)CC23CCCC3)cn1 [US11807646, Example 318]
O=C(N1CCC(O)(Cn2cnc(-c3ccccc3)cc2=O)C2(CCOCC2)C1)N1CCNC[C@H]1c1ccccc1 (some centres not stated) [US11807646, Example 321]
O=C1CN(c2ccccc2)CCN1CC1(O)CCN(C(=O)NCc2ccccc2)CC12CCCC2 (configuration not stated) [US11807646, Example 109]
O=C(N1CC[C@@](O)(Cn2cnc(-c3ccccc3)cc2=O)C2(CCCC2)C1)N1CC[S+]([O-])CC1c1ccccc1 (some centres not stated) [US11807646, Example 337]
CS(C)(=O)=Nc1cn(CC2(O)CCN(C(=O)N3CCNC[C@H]3c3ccccc3)CC23CCCC3)c(=O)cc1-c1ccccc1 (some centres not stated) [US11807646, Example 191]
